How the values were obtained:
[1] = molecular target: alkaline phosphatase (Bos taurus, UniProt P19111); type: biochemical, bovine; conditions: PNPP substrate
Method: Enzyme kinetics experiments are done using purified alkaline phosphatase from bovine intestine and the substrate para-nitrophenyl phosphate (PNPP). The formation of colored para-nitrophenol (PNP) from colorless PNPP is followed by measuring the color formation in the presence of inhibitor at several concentrations.
Specifically, enzyme reactions are done in a volume of 200 ul containing 12.5 mU/ml alkaline phosphatase, PNPP at concentrations between 0.5-200 mM, and an inhibitor at concentrations between 0-100 mM. […] Phosphoserine is the natural substrate for this enzyme. The final buffer solution is 0.9 M diethanolamine and 0.5 mM […], pH 9.8, mixed 3:1 (v:v) with water. Reactions are done in a 96-well microtiter plate. The enzyme reaction is initiated by the addition of the enzyme. Each reaction mixture is done in triplicate. The enzyme reaction is monitored by measuring the optical density (OD) at 405 nm, with a reference OD of 490 nm. The OD's are read every 30 seconds over a 15 minute period at room temperature. PNP concentration is determined based on a standard curve correlating OD405/490 vs. PNP concentration. […] The data is then transformed and plotted as the Kmapp / Vmax. vs. inhibitor concentration. From these plots the dissociation constant of the enzyme-inhibitor complex, Ki, is determined. The x-intercept on this plot equals (-Ki). […]

[2] = system: acid phosphatase (EC 3.1.3.2) type V; experiment: Acid phosphatase enzyme kinetics with PNPP substrate; type: biochemical, bovine
Method: Enzyme kinetics are done using purified acid phosphatase (EC 3.1.3.2) type V from bovine milk with PNPP as the substrate. The enzyme kinetics experiments are done similarly to the kinetics experiments for alkaline phosphatase, described above.
The buffer is 0.2 M sodium acetate buffer, pH 5.6. Reactions are done in a 96-well microtiter plate. The enzyme reaction is initiated by the addition of enzyme. The enzyme reaction is stopped by the addition of 50 ul of 3 N NaOH to each well. Reaction times are from 0-15 minutes, at 30 second intervals. As described previously, the reaction rate is determined by measurement of the formation of colored product, PNP, which correlates with OD405/490. Acid phosphatase has a linear enzyme reaction rate for 15 minutes with the concentration ranges tested. Calculation of the Ki is done as described above.

[3] = system: purified protein tyrosine phosphatase; experiment: Purified protein tyrosine phosphatase, dephosphorylation of phosphotyrosine-containing peptide substrates; type: biochemical; conditions: experiments not described
[4] = system: human taste response to bitter-tasting compounds; experiment: Human taste test: detection threshold of bitter-tasting compounds with and without VMP; type: in vivo; conditions: 0.3% VMP
Method: In the first taste test, the detection threshold for a bitter-tasting compound is determined by having subjects taste a series of solutions containing increasing concentrations of the bitter-tasting compound. None of the subjects are able to taste the bitterness in the first solution containing the lowest concentration of the bitter-tasting molecule. The subjects are instructed to indicate the first, or lowest concentration of solution that is sensed as bitter. This concentration is the detection threshold for that particular compound and subject. […] The detection threshold for the bitter-tasting compound plus inhibitor is likewise determined. All of these aqueous solutions contain 5% sucrose. […] The dilution series are in ^1/2 log increments (i.e., 1 uM, 3.2 uM, 10 uM, 32 uM). The pair of dilution series with and without inhibitor is tasted within a 2 hour time period. Subjects are blinded as to the identity of the bitter compound and whether inhibitor is present or not. The two dilution series are presented in random order. […]

[5] = system: human taste response to bitter-tasting compounds; experiment: Human taste test: paired comparisons of bitter-tasting compounds with and without VMP; type: in vivo; conditions: inhibitor 0.3%; for Cert. (%): mean certainty score
Excerpt: In this test all samples contain 5% sucrose. […] Subjects rate which sample is most bitter, and also indicate on a 7 point scale the certainty of their choice. […] However, it inhibits bitterness of phenylpropanolamine and guaifenesin to a lesser degree.

[6] = acetaminophen 10.00 mM, total # responses 4
[7] = acetaminophen 32.00 mM, total # responses 5
[8] = chlorpheniramine maleate 0.100 mM, total # responses 4
[9] = chlorpheniramine maleate 1.000 mM, total # responses 4
[10] = dextromethorphan 0.320 mM, total # responses 4
[11] = guaifenesin 0.320 mM, total # responses 4
[12] = guaifenesin 3.200 mM, total # responses 4
[13] = guaifenesin 10.00 mM, total # responses 4
[14] = phenylpropanolamine HCl 3.200 mM, total # responses 5
[15] = phenylpropanolamine HCl 10.00 mM, total # responses 5
[16] = pseudoephedrine HCl 0.320 mM, total # responses 5
[17] = pseudoephedrine HCl 1.000 mM, total # responses 5
[18] = sucrose octaacetate 0.001 mM, total # responses 5
[19] = sucrose octaacetate 0.003 mM, total # responses 5

alkaline phosphatase, sequence (P19111 20-506): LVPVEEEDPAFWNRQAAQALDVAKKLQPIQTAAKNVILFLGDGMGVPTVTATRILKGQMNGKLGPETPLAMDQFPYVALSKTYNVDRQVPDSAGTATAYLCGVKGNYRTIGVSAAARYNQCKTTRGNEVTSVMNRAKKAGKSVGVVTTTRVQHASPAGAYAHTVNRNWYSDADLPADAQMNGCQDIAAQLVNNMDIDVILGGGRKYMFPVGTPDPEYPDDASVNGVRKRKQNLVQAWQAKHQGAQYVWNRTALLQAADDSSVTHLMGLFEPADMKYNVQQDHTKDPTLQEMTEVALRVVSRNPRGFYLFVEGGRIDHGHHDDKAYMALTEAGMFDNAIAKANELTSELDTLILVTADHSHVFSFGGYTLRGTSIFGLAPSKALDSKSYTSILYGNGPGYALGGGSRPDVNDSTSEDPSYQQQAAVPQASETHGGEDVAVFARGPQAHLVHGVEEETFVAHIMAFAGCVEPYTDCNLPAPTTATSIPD

vanillylmonophosphate [VMP]
type of inhibition of alkaline phosphatase [1]: competitively inhibited
type of inhibition of acid phosphatase ([2]; PNPP substrate): competitively inhibited
Ki ([2]; PNPP substrate at room temperature, pH 5.6): 9.16 mM
effect on tyrosine phosphatase activity against peptide substrates [3]: inhibits the activity
# VMP did not change threshold ([4]; CPC, n 2): 1
# VMP increased threshold ([4]; CPC, n 2): 0
% Subjects that VMP increased threshold ([4]; CPC, n 2): 0.00%
# VMP did not change threshold ([4]; acetaminophen, n 5): 3
# VMP increased threshold ([4]; acetaminophen, n 5): 2
% Subjects that VMP increased threshold ([4]; acetaminophen, n 5): 40.00%
# VMP did not change threshold ([4]; caffeine, n 4): 3
# VMP increased threshold ([4]; caffeine, n 4): 0
% Subjects that VMP increased threshold ([4]; caffeine, n 4): 0.00%
# VMP did not change threshold ([4]; chlorpheniramine maleate, n 5): 0
# VMP increased threshold ([4]; chlorpheniramine maleate, n 5): 4
% Subjects that VMP increased threshold ([4]; chlorpheniramine maleate, n 5): 80.00%
# VMP did not change threshold ([4]; cimetidine, n 2): 1
# VMP increased threshold ([4]; cimetidine, n 2): 1
% Subjects that VMP increased threshold ([4]; cimetidine, n 2): 50.00%
# VMP did not change threshold ([4]; denatonium benzoate, n 4): 2
# VMP increased threshold ([4]; denatonium benzoate, n 4): 2
% Subjects that VMP increased threshold ([4]; denatonium benzoate, n 4): 50.00%
# VMP did not change threshold ([4]; dextromethorphan, n 5): 4
# VMP increased threshold ([4]; dextromethorphan, n 5): 1
% Subjects that VMP increased threshold ([4]; dextromethorphan, n 5): 20.00%
# VMP did not change threshold ([4]; domiphen bromide, n 4): 3
# VMP increased threshold ([4]; domiphen bromide, n 4): 1
% Subjects that VMP increased threshold ([4]; domiphen bromide, n 4): 25.00%
# VMP did not change threshold ([4]; doxylamine succinate, n 3): 1
# VMP increased threshold ([4]; doxylamine succinate, n 3): 2
% Subjects that VMP increased threshold ([4]; doxylamine succinate, n 3): 66.67%
# VMP did not change threshold ([4]; famotidine, n 3): 3
# VMP increased threshold ([4]; famotidine, n 3): 0
% Subjects that VMP increased threshold ([4]; famotidine, n 3): 0.00%
# VMP did not change threshold ([4]; guaifenesin, n 8): 2
# VMP increased threshold ([4]; guaifenesin, n 8): 2
% Subjects that VMP increased threshold ([4]; guaifenesin, n 8): 25.00%
# VMP did not change threshold ([4]; phenylpropanolamine, n 7): 2
# VMP increased threshold ([4]; phenylpropanolamine, n 7): 4
% Subjects that VMP increased threshold ([4]; phenylpropanolamine, n 7): 57.14%
# VMP did not change threshold ([4]; pseudoephedrine, n 5): 2
# VMP increased threshold ([4]; pseudoephedrine, n 5): 2
% Subjects that VMP increased threshold ([4]; pseudoephedrine, n 5): 40.00%
# VMP did not change threshold ([4]; ranitidine, n 3): 1
# VMP increased threshold ([4]; ranitidine, n 3): 1
% Subjects that VMP increased threshold ([4]; ranitidine, n 3): 33.33%
# VMP did not change threshold ([4]; sucrose octaacetate, n 7): 4
# VMP increased threshold ([4]; sucrose octaacetate, n 7): 1
% Subjects that VMP increased threshold ([4]; sucrose octaacetate, n 7): 14.29%
Cert. (%) ([5]; acetaminophen 10.00 mM): 43%
Corr./Tot. [5, 6]: 0.50
Correct # responses [5, 6]: 2
Cert. (%) ([5]; acetaminophen 32.00 mM): 29%
Corr./Tot. [5, 7]: 0.80
Correct # responses [5, 7]: 4
Cert. (%) ([5]; chlorpheniramine maleate 0.100 mM): 54%
Corr./Tot. [5, 8]: 1.00
Correct # responses [5, 8]: 4
Cert. (%) ([5]; chlorpheniramine maleate 1.000 mM): 71%
Corr./Tot. [5, 9]: 1.00
Correct # responses [5, 9]: 4
Cert. (%) ([5]; dextromethorphan 0.320 mM): 82%
Corr./Tot. [5, 10]: 1.00
Correct # responses [5, 10]: 4
Cert. (%) ([5]; guaifenesin 0.320 mM): 14%
Corr./Tot. [5, 11]: 0.50
Correct # responses [5, 11]: 2
Cert. (%) ([5]; guaifenesin 3.200 mM): 36%
Corr./Tot. [5, 12]: 0.50
Correct # responses [5, 12]: 2
Cert. (%) ([5]; guaifenesin 10.00 mM): 57%
Corr./Tot. [5, 13]: 0.75
Correct # responses [5, 13]: 3
Cert. (%) ([5]; phenylpropanolamine HCl 3.200 mM): 11%
Corr./Tot. [5, 14]: 0.40
Correct # responses [5, 14]: 2
Cert. (%) ([5]; phenylpropanolamine HCl 10.00 mM): 49%
Corr./Tot. [5, 15]: 0.80
Correct # responses [5, 15]: 4
Cert. (%) ([5]; pseudoephedrine HCl 0.320 mM): 14%
Corr./Tot. [5, 16]: 0.60
Correct # responses [5, 16]: 3
Cert. (%) ([5]; pseudoephedrine HCl 1.000 mM): 34%
Corr./Tot. [5, 17]: 0.40
Correct # responses [5, 17]: 2
Cert. (%) ([5]; sucrose octaacetate 0.001 mM): 20%
Corr./Tot. [5, 18]: 0.20
Correct # responses [5, 18]: 1
Cert. (%) ([5]; sucrose octaacetate 0.003 mM): 23%
Corr./Tot. [5, 19]: 0.40
Correct # responses [5, 19]: 2

Source: patent EP0845217A1, “Inhibiting undesirable taste in oral compositions” (priority 1996, dated 1998)
